The source of these data is patent US6569878B1, “Substituted 4-amino-thiazol-2-yl compounds as cyclin-dependent kinase inhibitors” (Agouron Pharmaceuticals Inc., priority 1997, dated 2003).

In one test the test system is HCT116. The experiment in a line: Inhibition of cell growth, MTT assay, HCT116. The format is cell-based, human. To be noted: Homo sapiens, HCT-116. An outline of the steps: (§1)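 Cells rested 4 h after plating, then exposed to graded compound concentrations in 0.5% (v/v) DMSO for four to six days (cell-type dependent) at 37° C, 5% CO2. Viability was read by MTT (0.2 mg/mL final, 4 h at 37° C), with DMSO-solubilized formazan measured at 540 nm.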
A general note: Formazan colour is commonly taken as a measure of viable cells.

In a further test the target is T1, CDK2/cyclin A (Homo sapiens, UniProt P24941).
T1 construct: made in house; host or cells: CDK2: insect cells (baculovirus); cyclin A: E. coli, then limited proteolysis
The experiment in a line: Inhibition of CDK2/cyclin A retinoblastoma kinase activity. The format is biochemical. To be noted: read-out: Ki CDK 2/A. An outline of the steps:
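Baculovirus-expressed CDK2 with excess proteolyzed cyclin A (or purified complex), 150 nM or 5 nM, phosphorylating an Rb fragment with 25 μM [32/33P]ATP, pH 7.4, 30° C, 20 min. Filter-captured radioactivity by phosphorimager; apparent Ki from fits to competitive or tight-binding competitive inhibition using measured ATP Km.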

Test [1] deals with T2, complex of cyclin D1 and a fusion protein of human CDK4 and glutathione-S-transferase (GST-CDK4) (Homo sapiens, UniProt P11802).
T2 construct: made in house; host or cells: insect cells, co-infected with baculovirus
T2 sequence (P11802 whole entry, the tested form may be a part): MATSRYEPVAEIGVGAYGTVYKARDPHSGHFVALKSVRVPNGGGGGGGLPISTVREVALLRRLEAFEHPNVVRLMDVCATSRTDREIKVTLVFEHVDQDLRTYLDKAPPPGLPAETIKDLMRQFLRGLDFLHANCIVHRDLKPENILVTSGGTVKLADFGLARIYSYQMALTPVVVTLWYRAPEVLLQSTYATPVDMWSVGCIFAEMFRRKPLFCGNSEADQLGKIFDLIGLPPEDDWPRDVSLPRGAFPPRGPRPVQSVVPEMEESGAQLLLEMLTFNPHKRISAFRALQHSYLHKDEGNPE
T2 sequence (P24385 whole entry partner, the tested form may be a part): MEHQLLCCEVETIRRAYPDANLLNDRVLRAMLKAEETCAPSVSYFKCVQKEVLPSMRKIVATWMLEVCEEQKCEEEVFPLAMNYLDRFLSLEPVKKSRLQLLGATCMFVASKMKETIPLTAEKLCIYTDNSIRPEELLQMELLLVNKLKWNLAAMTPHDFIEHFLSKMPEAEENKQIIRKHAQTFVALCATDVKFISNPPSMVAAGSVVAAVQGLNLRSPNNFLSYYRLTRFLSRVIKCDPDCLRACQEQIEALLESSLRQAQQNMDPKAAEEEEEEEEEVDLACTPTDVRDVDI
The experiment in a line: Inhibition of CDK4/cyclin D retinoblastoma kinase activity (D-type cyclin is D1). Type of test: biochemical. To be noted: superscript b: D-type cyclin is D1, read-out: Ki CDK 4/D; for Ki: μM. As for the experimental part: Cyclin-dependent kinase activity was measured by quantifying the enzyme-catalyzed, time-dependent incorporation of radioactive phosphate from [^32P]ATP or [^33P]ATP into a protein substrate. Unless noted otherwise, assays were performed in 96-well plates in a total volume of 50 μL, in the presence of 10 mM HEPES (N-[2-hydroxyethyl]piperazine-N′-[2-ethanesulfonic acid]) (pH 7.4), 10 mM MgCl2, 25 μM adenosine triphosphate (ATP), 1 mg/mL ovalbumin, 5 μg/mL leupeptin, 1 mM dithiothreitol, 10 mM β-glycerophosphate, 0.1 mM sodium vanadate, 1 mM sodium fluoride, 2.5 mM ethylene glycol-bis(β-aminoethyl ether)-N,N,N′N′-tetraacetic acid (EGTA), 2% (v/v) dimethylsulfoxide, and 0.03-0.4 μCi [^32/33P]ATP per reaction. Reactions were initiated with enzyme, incubated at 30° C., and terminated after 20 minutes by the addition of ethylenediaminetetraacetic acid (EDTA) to 250 mM. The phosphorylated substrate was then captured on a nitrocellulose or phosphocellulose membrane using a 96-well filtration manifold, and unincorporated radioactivity was removed by repeated washing with 0.85% phosphoric acid. Radioactivity was quantified by exposing the dried membranes to a phosphorimager.
Apparent Ki values were measured by assaying enzyme activity in the presence of different inhibitor compound concentrations and subtracting the background radioactivity measured in the absence of enzyme. The kinetic parameters (kcat, Km for ATP) were measured for each enzyme under the usual assay conditions by determining the dependence of initial rates on ATP concentration. Inhibition data were fit to an equation for competitive inhibition using Kaleidagraph (Synergy Software), or were fit to an equation for competitive tight-binding inhibition using the software KineTic (BioKin, Ltd.).
A complex of human CDK4 and cyclin D3, or a complex of cyclin D1 and a fusion protein of human CDK4 and gluathione-S-transferase (GST-CDK4), or a complex of human CDK4 and genetically truncated (1-264) cyclin D3, was purified using traditional biochemical chromatographic techniques from insect cells that had been co-infected with the corresponding baculovirus expression vectors (see e.g., Meijer and Kim, “Chemical Inhibitors of Cyclin-Dependent Kinases,” Methods in Enzymol,. vol. 283 (1997), pp. 113-128.). The enzyme complex (5 or 50 nM) was assayed with 0.3-0.5 μg of purified recombinant retinoblastoma protein fragment (Rb) as a substrate. The engineered Rb fragment (residues 386-928 of the native retinoblastoma protein; 62.3 kDa) contains the majority of the phosphorylation sites found in the native 106-kDa protein, as well as a tag of six histidine residues for ease of purification. Phosphorylated Rb substrate was captured by microfiltration on a nitrocellulose membrane and quantified using a phosphorimager as described above. For measurement of tight-binding inhibitors, the enzyme complex concentration was lowered to 5 nM, and the assay duration was extended to 60 minutes, during which the time-dependence of product formation was linear.

A further test relates to SW-480. The experiment in a line: Inhibition of cell growth, MTT assay, SW-480. To be noted: Homo sapiens, SW480; SW-480, MTT assay. Type of test: cell-based. As for the experimental part: Inhibition of cell growth was measured using the tetrazolium salt assay, which is based on the ability of viable cells to reduce 3-(4,5-dimethylthiazol-2-yl)-2,5-[2H]-diphenyltetrazolium bromide (MTT) to formazan (Mossman, Journal of Immunological Methods, vol. 65 (1983), pp. 55-58). The water-insoluble purple formazan product was then detected spectrophotometrically. Various cell lines (HCT-116, Saos-2, U2-OS, SW480, COLO-205, RXF-393, M14, MDA-MB-468, and MCF7) were grown in 96-well plates. Cells were plated in the appropriate medium at a volume of 135 μl/well in either McCoy's 5A Medium (for Saos-2, U2-OS, SW480, and HCT-116 cells), RPMI (for COLO-205, RXF-393, M14 cells), or Minimum Essential Medium Eagle (for MDA-MB-468 and MCF7 cells). Plates were incubated for four hours before addition of inhibitor compounds. Different concentrations of inhibitor compounds were added in 0.5% (v/v) dimethylsulfoxide (15 μL/well), and cells were incubated at 37° C. (5% CO2) for four to six days (depending on cell type). At the end of the incubation, MTT was added to a final concentration of 0.2 mg/mL, and cells were incubated for 4 hours more at 37° C. After centrifugation of the plates and removal of medium, the absorbance of the formazan (solubilized in dimethylsulfoxide) was measured at 540 nm. […] All results were compared to control cells treated only with 0.5% (v/v) dimethylsulfoxide.

The target of test [2] is T3, complex of human CDK4 and cyclin D3 (Homo sapiens, UniProt P11802).
T3 construct: made in house; host or cells: insect cells, co-infected with baculovirus
T3 sequence (P11802 whole entry): as the sequence (P11802 whole entry, the tested form may be a part) above
T3 sequence (P30281 whole entry partner): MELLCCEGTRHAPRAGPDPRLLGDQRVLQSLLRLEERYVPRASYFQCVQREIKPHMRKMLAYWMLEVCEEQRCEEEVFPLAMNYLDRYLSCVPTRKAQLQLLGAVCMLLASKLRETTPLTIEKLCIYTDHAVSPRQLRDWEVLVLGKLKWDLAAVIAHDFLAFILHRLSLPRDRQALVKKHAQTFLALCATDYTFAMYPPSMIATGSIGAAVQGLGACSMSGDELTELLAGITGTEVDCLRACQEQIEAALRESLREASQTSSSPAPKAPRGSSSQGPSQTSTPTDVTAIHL
Nature of the test: Inhibition of CDK4/cyclin D retinoblastoma kinase activity (D-type cyclin is D3). Type of test: biochemical. To be noted: superscript a: D-type cyclin is D3, read-out: Ki CDK 4/D; for pKi: apparent Ki. Summed up:
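Radiometric assay: [32P]- or [33P]ATP phosphate incorporation into Rb substrate at 30°C for 20 min, stopped with EDTA, filter-captured and phosphorimaged.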

Test [3] deals with T4, human CDK1 (cdc2) and cyclin B (Homo sapiens, UniProt P06493).
T4 construct: purchased New England Biolabs (Beverly Mass.)
T4 sequence (P06493 whole entry): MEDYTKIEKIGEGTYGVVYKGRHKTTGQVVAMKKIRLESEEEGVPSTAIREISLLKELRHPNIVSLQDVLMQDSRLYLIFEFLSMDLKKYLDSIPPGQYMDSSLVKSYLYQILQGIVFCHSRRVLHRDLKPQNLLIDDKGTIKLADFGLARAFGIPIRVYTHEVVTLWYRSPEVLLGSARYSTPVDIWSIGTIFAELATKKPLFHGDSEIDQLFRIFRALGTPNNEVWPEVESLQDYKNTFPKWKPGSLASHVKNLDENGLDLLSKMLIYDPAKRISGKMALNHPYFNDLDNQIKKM
T4 sequence (P14635 whole entry partner): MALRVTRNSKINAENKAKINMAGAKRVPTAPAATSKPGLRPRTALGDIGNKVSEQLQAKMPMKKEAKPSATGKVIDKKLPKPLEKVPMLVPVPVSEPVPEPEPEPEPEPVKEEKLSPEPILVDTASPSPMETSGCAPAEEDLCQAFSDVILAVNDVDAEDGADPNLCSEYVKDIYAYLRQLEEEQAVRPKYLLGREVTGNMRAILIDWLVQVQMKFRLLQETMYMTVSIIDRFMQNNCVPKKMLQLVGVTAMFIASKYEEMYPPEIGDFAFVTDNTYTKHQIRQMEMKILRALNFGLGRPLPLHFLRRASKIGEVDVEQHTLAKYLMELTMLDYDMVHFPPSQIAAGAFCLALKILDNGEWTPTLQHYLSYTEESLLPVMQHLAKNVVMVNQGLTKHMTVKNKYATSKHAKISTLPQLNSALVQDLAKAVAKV
Nature of the test: Inhibition of CDK1(cdc2)/cyclin B histone H1 kinase activity. Type of test: biochemical. To be noted: read-out: Ki CDK 1/B. An outline of the steps: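 CDK1/cyclin B (commercial, or CDK1/GST-cyclin B1 from co-infected insect cells) phosphorylated histone H1 with 25 μM [32/33P]ATP at pH 7.4, 30° C for 20 min, 2% DMSO. Product captured on phosphocellulose and read by phosphorimager; apparent Ki from competitive or tight-binding fits, with Km for ATP determined.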

A further test has as its system Saos-2. The experiment in a line: Inhibition of cell growth, MTT assay, Saos-2. The format is cell-based. To be noted: Homo sapiens; Saos-2, MTT assay. An outline of the steps:
as §1

A further test deals with M14 melanoma. The experiment in a line: Inhibition of cell growth, MTT assay, M14 melanoma. Type of test: cell-based. To be noted: Homo sapiens. As for the experimental part:
(§2) The water-insoluble purple formazan product was then detected spectrophotometrically. […] Plates were incubated for four hours before addition of inhibitor compounds. Different concentrations of inhibitor compounds were added in 0.5% (v/v) dimethylsulfoxide (15 μL/well), and cells were incubated at 37° C. (5% CO2) for four to six days (depending on cell type). At the end of the incubation, MTT was added to a final concentration of 0.2 mg/mL, and cells were incubated for 4 hours more at 37° C. After centrifugation of the plates and removal of medium, the absorbance of the formazan (solubilized in dimethylsulfoxide) was measured at 540 nm.

Another test has as its system U2-OS. The experiment in a line: Inhibition of cell growth, MTT assay, U2-OS. The format is cell-based. To be noted: Homo sapiens, U2OS. Summed up: as §1
Test [4] deals with phosphorylation of the retinoblastoma protein (pRb) in HCT-116 cells. The experiment in a line: pRb immunoblotting (anti-Rb antibody). Type of test: cell-based, human. To be noted: five micromolar of each compound for 12 hours, western blot. The procedure:
(§3) The ability of compounds to inhibit phosphorylation of the retinoblastoma protein (pRb) was assessed by western blot analysis. An anti-Rb antibody was used to measure the conversion of hyper-phosphorylated pRb to hypo-phosphorylated pRb.
(§4) Human colon tumor cells (HCT-116 cells; 5×10^6) were plated on […] dishes and allowed to grow overnight. Five micromolar of each compound was added for 12 hours. The cells were then collected and centrifuged. The cell pellets were lysed by the addition of 100 μL lysis buffer (50 mM HEPES (pH 7.0), 250 mM NaCl, 5 mM ethylenediaminetetraacetic acid, 0.1% Nonidet P-40, 1 mM dithiothreitol, 2 mM sodium pyrophosphate, 1 mM sodium orthovanadate, 1 μg/ml aprotonin, 1 μg/ml leupeptin, 50 μg/ml phenylmethylsulfonyl fluoride). Forty micrograms of protein were separated by sodium dodecyl sulfate-polyacrylamide gel electrophoresis (SDS-PAGE) on a 6% gel. The proteins were transferred to nitrocellulose and blocked with 5% blocking buffer in Tris-buffered saline overnight. The anti-Rb antibody (Pharmingen), the anti-phospho-Rb (Ser 780) antibody (MBL), and secondary antibody were incubated for 1 hour at room temperature followed by three wash steps in 0.01% Tween-20 in Tris-buffered saline. The Rb protein was detected using chemiluminescence according to the manufacturer (Amersham).
Background: In western blotting, separated proteins are transferred to a membrane and probed.

The test system of test [5] is pRb phosphorylation at serine 780 in HCT-116 cells. Nature of the test: pRb immunoblotting (anti-phospho-Rb (ser780) antibody). Type of test: cell-based, human. To be noted: five micromolar of each compound for 12 hours, western blot, anti-phospho-Rb (Ser 780) antibody. The procedure:
as §3, §4

A further test concerns MCF-7. Nature of the test: Inhibition of cell growth, MTT assay, MCF-7. Type of test: cell-based. To be noted: Homo sapiens, MCF7; MCF-7, MTT assay. Summed up: as §1
The next test deals with COLO-205. The experiment in a line: Inhibition of cell growth, MTT assay, COLO-205. Type of test: cell-based. To be noted: Homo sapiens; COLO-205, MTT assay. The procedure: as §2
A further test deals with MDA-MB-468. Nature of the test: Inhibition of cell growth, MTT assay, MDA-MB-468. Type of test: cell-based. To be noted: Homo sapiens; MDA-MB-468, MTT assay. Summed up: as §1
A further test concerns RXF-393. The experiment in a line: Inhibition of cell growth, MTT assay, RXF-393. The format is cell-based. To be noted: Homo sapiens; RXF-393, MTT assay. The procedure: as §2

pIC50, pKi: −log10 of the molar value. Like-named read-outs stand apart in the source and are kept apart here.

In general, pIC50 refers to the negative decadic logarithm of the IC50, by convention in mol/L. Read a high pIC50 as a small IC50. The term IC90 denotes the concentration at which the effect reaches the 90% level. Read a low IC90 as an effect from little substance. `Nc1nc(Nc2ccccc2)sc1C(=O)c1cccc([N+](=O)[O-])c1` [A(1), (4-Amino-2-phenylamino-thiazol-5-yl)-(3-nitrophenyl)-methanone]: the pIC50 is 5.60 in the test with HCT116 and 5.40 in the test on SW-480. The IC90 worked out at 10000 nM with HCT116 and 9000 nM with SW-480. The pKi is 5.92 on CDK2/cyclin A, 6.11 in test [1] and 6.18 in test [2].
In the case of `Nc1cccc(C(=O)c2sc(Nc3ccccc3)nc2N)c1` [D(1), (3-Amino-phenyl)-(4-amino-2-phenylamino-thiazol-5-yl)-methanone], the pKi on CDK2/cyclin A is 6.05; in [1], 6.31.
With `Nc1nc(Nc2ccccc2)sc1C(=O)c1ccccc1` [I(1)*], the pKi on CDK2/cyclin A was 6.34; in test [3] it was 6.30; in [1], 6.99; in test [2], 6.19.
Take `CC(=O)c1sc(Nc2ccccc2)nc1N` [I(2)*]: the pKi on CDK2/cyclin A is 5.06; in test [2], 5.10. In addition, in test [1], the Ki was about 30 µM.
For `CC(=O)c1sc(NCc2ccccc2)nc1N` [I(3)*], the Ki in test [1] was over 100 µM; in test [2] (μM), over 5 µM.
As to `Nc1nc(Nc2ccccc2)sc1C(=O)C1CC1` [I(4)*], the Ki on CDK2/cyclin A (μM) was 4.3 µM; in test [1] it was 3.1 µM. The pKi in test [3] is 5.41.
Regarding `CCNc1nc(N)c(C(=O)c2ccccc2)s1` [I(5)*], the pKi at CDK2/cyclin A was 5.34; in test [3], 5.35; in test [1] it was 6.06; in [2], 5.96.
Turning to `Nc1nc(Nc2ccc(N3CCNCC3)cc2)sc1C(=O)c1c(F)cccc1F` [J(2), [4-Amino-2-(4-piperazin-1-yl-phenylamino)-thiazol-5-yl]-(2,6-difluoro-phenyl)-methanone], the pIC50 with Saos-2 was 6.24; with M14 melanoma, 6.19; in the test on HCT116 it was 6.52; in the test with U2-OS, 5.77; with MCF-7, 6.32; with COLO-205, 6.05. For the same compound, the pIC50 with MDA-MB-468 was 6.47; in the test with RXF-393, 6.26. The IC90 in the test with Saos-2 worked out at 1300 nM; in the test with M14 melanoma, 2000 nM; in the test on HCT116 it was 730 nM; in the test on U2-OS it was 2800 nM; with MCF-7, 1700 nM; with COLO-205 it was 2700 nM. The IC90 in the test with MDA-MB-468 came out at 700 nM; in the test with RXF-393, 1100 nM. Besides, the “Inhibits pRb phosphorylation” value in [4] is “+”. The “Inhibits pRb (ser 780) phosphorylation” value in test [5] is “+”. The pKi was 6.87 on CDK2/cyclin A, 6.39 in [3] and 8.19 in test [2].
